Laboratory results reported in EP2682005A1, “A dietary supplement composition” (Symrise AG, priority 2012, dated 2014).

How the values were obtained:
Type in all cases: biochemical
[1] = Activity against free radicals, Method B (hydroxyl radicals from hydrogen peroxide with iron (II) ions and EDTA, desoxyribose oxidation); conditions: optical density at 532 nm
Experimental: (§1) The effectiveness of the test substances against free radicals was tested by various chemical and biochemical methods: Method A A first test was carried out using diphenylpicrylhydrazyl (DPPH°) which is a relatively stable radical that forms a purple-coloured solution. The optical density (DO) at 513 nm was determined. Method B Hydroxyl radicals were released from hydrogen peroxide in the presence of iron (II) ions and EDTA and were used to oxidize desoxyribose. The oxidation product forms a pink-coloured compound with thiobarbituric acid. Its concentration corresponds to the optical density at 532 nm. A test was conducted to determine whether less desoxyribose is oxidized, i.e. whether fewer free radicals are released, in the presence of the test products. […] Method D Xanthine oxidase is an enzyme which is released through oxidative stress and catabolizes the decomposition of the purine bases adenine and guanine into uronic acid and superoxide anions. The superoxide anions dismute into hydrogen peroxide and oxygen either spontaneously or in the presence of Superoxid Dismutase. The quantity of superoxide anion can be determined by NBT reduction via the optical density at 490 nm. A test was conducted to determine whether fewer superoxide anions are generated or more anions are destroyed in the presence of the test substances. […]

[2] = Activity against free radicals, Method C (desoxyribose oxidation in the absence of EDTA, forming inactive iron complexes); conditions: as Method B in the absence of EDTA
Experimental: as §1

[3] = Activity against free radicals, Method A (DPPH radical, optical density at 513 nm)
Experimental: The effectiveness of the test substances against free radicals was tested by various chemical and biochemical methods: Method A A first test was carried out using diphenylpicrylhydrazyl (DPPH°) which is a relatively stable radical that forms a purple-coloured solution. The optical density (DO) at 513 nm was determined. Method B Hydroxyl radicals were released from hydrogen peroxide in the presence of iron (II) ions and EDTA and were used to oxidize desoxyribose. The oxidation product forms a pink-coloured compound with thiobarbituric acid. Its concentration corresponds to the optical density at 532 nm. A test was conducted to determine whether less desoxyribose is oxidized, i.e. whether fewer free radicals are released, in the presence of the test products. […] Method D Xanthine oxidase is an enzyme which is released through oxidative stress and catabolizes the decomposition of the purine bases adenine and guanine into uronic acid and superoxide anions. The superoxide anions dismute into hydrogen peroxide and oxygen either spontaneously or in the presence of Superoxid Dismutase. The quantity of superoxide anion can be determined by NBT reduction via the optical density at 490 nm. A test was conducted to determine whether fewer superoxide anions are generated or more anions are destroyed in the presence of the test substances. The results are set out in Table 1 and represent the EC50 values in % (w/v).

[4] = biological target: Xanthine oxidase (Homo sapiens, UniProt P47989); assay: Activity against free radicals, Method D (xanthine oxidase, superoxide anion by NBT reduction); conditions: optical density at 490 nm
Experimental: The effectiveness of the test substances against free radicals was tested by various chemical and biochemical methods: Method A A first test was carried out using diphenylpicrylhydrazyl (DPPH°) which is a relatively stable radical that forms a purple-coloured solution. The optical density (DO) at 513 nm was determined. Method B Hydroxyl radicals were released from hydrogen peroxide in the presence of iron (II) ions and EDTA and were used to oxidize desoxyribose. The oxidation product forms a pink-coloured compound with thiobarbituric acid. Its concentration corresponds to the optical density at 532 nm. A test was conducted to determine whether less desoxyribose is oxidized, i.e. whether fewer free radicals are released, in the presence of the test products. […] Method D Xanthine oxidase is an enzyme which is released through oxidative stress and catabolizes the decomposition of the purine bases adenine and guanine into uronic acid and superoxide anions. The superoxide anions dismute into hydrogen peroxide and oxygen either spontaneously or in the presence of Superoxid Dismutase. The quantity of superoxide anion can be determined by NBT reduction via the optical density at 490 nm. A test was conducted to determine whether fewer superoxide anions are generated or more anions are destroyed in the presence of the test substances.
The results are set out in Table 1 and represent the EC50 values in % (w/v).

Xanthine oxidase, sequence (P47989 whole entry, species assumed): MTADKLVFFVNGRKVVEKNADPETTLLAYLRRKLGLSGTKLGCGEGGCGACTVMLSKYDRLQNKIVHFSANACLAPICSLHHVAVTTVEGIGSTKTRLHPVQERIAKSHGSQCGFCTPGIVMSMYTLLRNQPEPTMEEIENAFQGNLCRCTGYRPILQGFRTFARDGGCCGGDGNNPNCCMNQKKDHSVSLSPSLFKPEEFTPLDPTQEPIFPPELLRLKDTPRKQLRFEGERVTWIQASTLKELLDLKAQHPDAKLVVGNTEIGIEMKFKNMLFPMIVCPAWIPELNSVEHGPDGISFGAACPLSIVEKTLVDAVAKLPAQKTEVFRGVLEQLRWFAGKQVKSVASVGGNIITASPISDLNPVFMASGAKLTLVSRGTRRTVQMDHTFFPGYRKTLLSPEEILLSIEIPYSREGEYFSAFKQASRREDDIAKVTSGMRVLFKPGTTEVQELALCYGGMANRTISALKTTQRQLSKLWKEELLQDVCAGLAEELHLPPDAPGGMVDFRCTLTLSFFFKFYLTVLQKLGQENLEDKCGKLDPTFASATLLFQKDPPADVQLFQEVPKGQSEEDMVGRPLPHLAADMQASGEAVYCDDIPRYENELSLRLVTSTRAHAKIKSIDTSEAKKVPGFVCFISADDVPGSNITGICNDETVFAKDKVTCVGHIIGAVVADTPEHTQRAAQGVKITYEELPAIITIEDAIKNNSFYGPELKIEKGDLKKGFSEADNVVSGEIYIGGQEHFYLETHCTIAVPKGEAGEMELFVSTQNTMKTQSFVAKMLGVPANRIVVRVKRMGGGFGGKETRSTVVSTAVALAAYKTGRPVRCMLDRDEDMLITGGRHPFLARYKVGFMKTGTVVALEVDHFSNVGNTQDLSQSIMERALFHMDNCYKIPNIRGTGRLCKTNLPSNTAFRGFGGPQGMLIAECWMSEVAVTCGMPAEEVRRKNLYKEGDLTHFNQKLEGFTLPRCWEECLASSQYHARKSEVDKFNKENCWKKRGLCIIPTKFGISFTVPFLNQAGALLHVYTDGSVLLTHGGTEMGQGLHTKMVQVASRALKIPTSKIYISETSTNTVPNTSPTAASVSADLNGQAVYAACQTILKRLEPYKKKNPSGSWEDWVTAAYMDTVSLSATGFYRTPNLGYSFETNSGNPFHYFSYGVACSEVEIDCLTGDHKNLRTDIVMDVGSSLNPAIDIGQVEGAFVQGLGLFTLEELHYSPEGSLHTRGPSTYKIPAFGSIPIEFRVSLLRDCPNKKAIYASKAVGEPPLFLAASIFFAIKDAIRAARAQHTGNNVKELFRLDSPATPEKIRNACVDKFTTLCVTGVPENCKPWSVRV

Compound	EC50, Method B [1]	EC50, Method C [2]	EC50, Method A [3]	EC50, Method D [4]
O=C1O[C@H]([C@@H](O)CO)C(O)=C1O [Ascorbic acid]	0.26 % (w/v)	0.9 % (w/v)	0.0013 % (w/v)	0.59 % (w/v)
Butylhydroxytoluol	–	–	0.0500 % (w/v)	No effect
Tocopherol	–	–	0.0067 % (w/v)	No effect
